Measured values taken from US20260317340A1, “COMPOUNDS, COMPOSITIONS, AND METHODS OF TREATING DISORDERS” (Chengdu Anticancer Bioscience, Ltd., priority 2023, published 2026).
Like-named read-outs stand apart in the source and are kept apart here.

What was measured:
[1] = tested on: RPE-Neo or RPE-MYC cells; experiment: MTT assay of cellular proliferation (proliferative arrest); assay type: cell-based; conditions: read-out: Min. Effective conc. for Proliferative arrest (>50%)
Method: (§1) Human cancer cell lines were obtained from ATCC and cultured in DMEM (Gibco, Cleveland, TN, USA) supplemented with 5% fetal bovine serum (Gibco), penicillin (100 U/mL)-streptomycin (100 μg/mL) (Gibco, Cat. No. 15140-122), 2 mM L-glutamine (Gibco, 200 mM solution, Cat. No. 25030081), and 1 mM sodium pyruvate (Gibco, 100 mM solution, Cat. No. 11360070) at 37° C. in a humidified incubator that was maintained at 5% CO2.
Screening was conducted as described before (Li et al. 2019). Briefly, RPE-Neo or RPE-MYC or RPE-MYC expressing an EGFP-Histone 2B fusion protein were passaged as batches of 96-well plates, 18-24 hours before exposure to the chemical compounds of the present disclosure at concentrations from 20 nM to 20 μM. At 24, 48 or 72 hours after initiation of treatment, cells were analyzed for either an arrest in mitosis or a change in DNA content by GE IN-Cell Analyzer 2000. MTT assays of cellular proliferation were performed as previously described (Li et al. 2019). […]
(§2) As set forth in table 2 below, an values of greater than or equal to 1 nM and less than or equal to 1.0 μM is marked “A”; a value greater than 1.00 μM and less than or equal to 10.0 μM is marked “B”; a value greater than 10.0 μM and less than or equal to 30.0 μM is marked “C”; and a value greater than 30.0 μM and less than 1000 μM is marked “D.”

[2] = tested on: RPE-Neo or RPE-MYC or RPE-MYC expressing an EGFP-Histone 2B fusion protein; experiment: Phenotypic screening assay: arrest in mitosis, change in DNA content (polyploidy), cell death; assay type: cell-based; conditions: 20 nM to 20 μM, 24, 48 or 72 hours
Method: as §1
Screening was conducted as described before (Li et al. 2019). Briefly, RPE-Neo or RPE-MYC or RPE-MYC expressing an EGFP-Histone 2B fusion protein were passaged as batches of 96-well plates, 18-24 hours before exposure to the chemical compounds of the present disclosure at concentrations from 20 nM to 20 μM. At 24, 48 or 72 hours after initiation of treatment, cells were analyzed for either an arrest in mitosis or a change in DNA content by GE IN-Cell Analyzer 2000. MTT assays of cellular proliferation were performed as previously described (Li et al. 2019).
as §2

[3] = read-out: Min. Effective conc. for Along with Cell Death
[4] = ≥5%, read-out: Min. Effective conc. for Mitotic Arrest (≥5%)
[5] = ≥5%, read-out: Min. Effective conc. for Polyploidy (≥5%)

Structure (SMILES)	minimal effective concentration [1]	minimal effective concentration [2, 3]	minimal effective concentration [2, 4]	minimal effective concentration [2, 5]
COc1ccc(CN2C(=O)CC(c3ncc(C)o3)=Cc3ccc(-c4ccc(OC)nc4)cc32)cc1 [Compound 44, 1-(4-methoxybenzyl)-8-(6-methoxypyridin-3-yl)-4-(5-methyloxazol-2-yl)-1,3-dihydro-2H-benzo[b]azepin-2-one]	0.001 to 1 µM	0.001 to 1 µM	0.001 to 1 µM	0.001 to 1 µM
COc1ccc(CN2C(=O)CC(c3ncc(C)o3)=Cc3ccc(-c4cncnc4)cc32)cc1 [Compound 46, 1-(4-methoxybenzyl)-4-(5-methyloxazol-2-yl)-8-(pyrimidin-5-yl)-1,3-dihydro-2H-benzo[b]azepin-2-one]	0.001 to 1 µM	0.001 to 1 µM	0.001 to 1 µM	0.001 to 1 µM
COc1ccc(CN2C(=O)CC(c3ncc(C)o3)=Cc3ccc(-c4cnc(N)nc4)cc32)cc1 [Compound 47, 8-(2-aminopyrimidin-5-yl)-1-(4-methoxybenzyl)-4-(5-methyloxazol-2-yl)-1,3-dihydro-2H-benzo[b]azepin-2-one]	0.001 to 1 µM	0.001 to 1 µM	0.001 to 1 µM	0.001 to 1 µM
COc1ccc(CN2C(=O)CC(c3ncc(C)o3)=Cc3ccc(-c4cnn(C5CCOC5)c4)cc32)cc1 (stereo not drawn) [Compound 48, 1-(4-methoxybenzyl)-4-(5-methyloxazol-2-yl)-8-(1-(tetrahydrofuran-3-yl)-1H-pyrazol-4-yl)-1,3-dihydro-2H-benzo[b]azepin-2-one]	0.001 to 1 µM	0.001 to 1 µM	0.001 to 1 µM	0.001 to 1 µM
COc1ccc(CN2C(=O)CC(c3ncc(C)o3)=Cc3ccc(-c4cnn(C5CCOCC5)c4)cc32)cc1 [Compound 49, 1-(4-methoxybenzyl)-4-(5-methyloxazol-2-yl)-8-(1-(tetrahydro-2H-pyran-4-yl)-1H-pyrazol-4-yl)-1,3-dihydro-2H-benzo[b]azepin-2-one]	0.001 to 1 µM	0.001 to 1 µM	0.001 to 1 µM	0.001 to 1 µM
COc1ccc(CN2C(=O)CC(c3ncc(C)o3)=Cc3ccc(-c4cnn(CC(N)=O)c4)cc32)cc1 [Compound 50, 2-(4-(1-(4-methoxybenzyl)-4-(5-methyloxazol-2-yl)-2-oxo-2,3-dihydro-1H-benzo[b]azepin-8-yl)-1H-pyrazol-1-yl)acetamide]	0.001 to 1 µM	0.001 to 1 µM	0.001 to 1 µM	0.001 to 1 µM
COc1ccc(CN2C(=O)CC(c3nnc(C4CC4)o3)=Cc3ccc(-c4cnn(CCN5CCOCC5)c4)cc32)cc1 [Compound 52, 4-(5-cyclopropyl-1,3,4-oxadiazol-2-yl)-1-(4-methoxybenzyl)-8-(1-(2-morpholinoethyl)-1H-pyrazol-4-yl)-1,3-dihydro-2H-benzo[b]azepin-2-one]	0.001 to 1 µM	0.001 to 1 µM	0.001 to 1 µM	0.001 to 1 µM
COc1ccc(CN2C(=O)CC(c3ncc(C)o3)=Cc3ccc(-c4ccnc(N)c4)cc32)cc1 [Compound 55, 8-(2-Aminopyridin-4-yl)-1-(4-methoxybenzyl)-4-(5-methyloxazol-2-yl)-1,3-dihydro-2H-benzo[b]azepin-2-one]	0.001 to 1 µM	0.001 to 1 µM	0.001 to 1 µM	0.001 to 1 µM
COc1ccc(CN2C(=O)CC(c3ncc(C)o3)=Cc3ccc(-c4cnn(C(C)(C)CO)c4)cc32)cc1 [Compound 56, 8-(1-(1-hydroxy-2-methylpropan-2-yl)-1H-pyrazol-4-yl)-1-(4-methoxybenzyl)-4-(5-methyloxazol-2-yl)-1,3-dihydro-2H-benzo[b]azepin-2-one]	0.001 to 1 µM	0.001 to 1 µM	0.001 to 1 µM	0.001 to 1 µM
CCOC(C)n1cc(-c2ccc3c(c2)N(Cc2ccc(OC)cc2)C(=O)CC(c2ncc(C)o2)=C3)cn1 (stereo not drawn) [Compound 58, 8-(1-(1-Ethoxyethyl)-1H-pyrazol-4-yl)-1-(4-methoxybenzyl)-4-(5-methyloxazol-2-yl)-1,3-dihydro-2H-benzo[b]azepin-2-one]	0.001 to 1 µM	0.001 to 1 µM	0.001 to 1 µM	0.001 to 1 µM
COc1ccc(CN2C(=O)CC(c3ncc(C)o3)=Cc3ccc(-c4cnn(CCC#N)c4)cc32)cc1 [Compound 59, 3-(4-(1-(4-Methoxybenzyl)-4-(5-methyloxazol-2-yl)-2-oxo-2,3-dihydro-1H-benzo[b]azepin-8-yl)-1H-pyrazol-1-yl)propanenitrile]	0.001 to 1 µM	0.001 to 1 µM	0.001 to 1 µM	0.001 to 1 µM
CNC(=O)c1cc(-c2ccc3c(c2)N(Cc2ccc(OC)cc2)C(=O)CC(c2ncc(C)o2)=C3)ccn1 [Compound 60, 4-(1-(4-Methoxybenzyl)-4-(5-methyloxazol-2-yl)-2-oxo-2,3-dihydro-1H-benzo[b]azepin-8-yl)-N-methylpicolinamide]	0.001 to 1 µM	0.001 to 1 µM	0.001 to 1 µM	0.001 to 1 µM
COc1ccc(CN2C(=O)CC(c3ncc(C)o3)=Cc3ccc(-c4ccn(C)c(=O)c4)cc32)cc1 [Compound 62, 1-(4-Methoxybenzyl)-8-(1-methyl-2-oxo-1,2-dihydropyridin-4-yl)-4-(5-methyloxazol-2-yl)-1,3-dihydro-2H-benzo[b]azepin-2-one]	0.001 to 1 µM	0.001 to 1 µM	0.001 to 1 µM	0.001 to 1 µM
COc1ccc(CN2C(=O)CC(c3ncc(C)o3)=Cc3ccc(-c4cnn(CCN5CCCC5)c4)cc32)cc1 [Compound 64, 1-(4-methoxybenzyl)-4-(5-methyloxazol-2-yl)-8-(1-(2-(pyrrolidin-1-yl)ethyl)-1H-pyrazol-4-yl)-1,3-dihydro-2H-benzo[b]azepin-2-one]	0.001 to 1 µM	0.001 to 1 µM	0.001 to 1 µM	0.001 to 1 µM
COc1ccc(CN2C(=O)CC(c3ncc(C)o3)=Cc3ccc(-c4cnn(CCN(C)C)c4)cc32)cc1 [Compound 66, 8-(1-(2-(Dimethylamino)ethyl)-1H-pyrazol-4-yl)-1-(4-methoxybenzyl)-4-(5-methyloxazol-2-yl)-1,3-dihydro-2H-benzo[b]azepin-2-one]	0.001 to 1 µM	0.001 to 1 µM	0.001 to 1 µM	0.001 to 1 µM
CNC(=O)Cn1cc(-c2ccc3c(c2)N(Cc2ccc(OC)cc2)C(=O)CC(c2ncc(C)o2)=C3)cn1 [Compound 67, 2-(4-(1-(4-Methoxybenzyl)-4-(5-methyloxazol-2-yl)-2-oxo-2,3-dihydro-1H-benzo[b]azepin-8-yl)-1H-pyrazol-1-yl)-N-methylacetamide]	0.001 to 1 µM	0.001 to 1 µM	0.001 to 1 µM	0.001 to 1 µM
COc1ccc(CN2C(=O)CC(c3ncc(C)o3)=Cc3ccc(-c4cnn(CC#N)c4)cc32)cc1 [Compound 68, 2-(4-(1-(4-methoxybenzyl)-4-(5-methyloxazol-2-yl)-2-oxo-2,3-dihydro-1H-benzo[b]azepin-8-yl)-1H-pyrazol-1-yl)acetonitrile]	0.001 to 1 µM	0.001 to 1 µM	0.001 to 1 µM	0.001 to 1 µM
COc1ccc(CN2C(=O)CC(c3ncc(C)o3)=Cc3ccc(-c4cnn(CC(=O)O)c4)cc32)cc1 [Compound 69, 2-(4-(1-(4-Methoxybenzyl)-4-(5-methyloxazol-2-yl)-2-oxo-2,3-dihydro-1H-benzo[b]azepin-8-yl)-1H-pyrazol-1-yl)acetic acid]	1 to 10 µM	1 to 10 µM	1 to 10 µM	1 to 10 µM
